“Also recorded” adds a separate entry of the source.
Assays:
P. falciparum merozoites = test system: P. falciparum merozoites; design: method as in earlier work; conditions: live cell imaging; ref 11 (Dans et al 2020); cited from earlier work
[1] = test system: PF3D7_1351000 (START-domain protein); assay: Solvent-PISA (solvent proteome profiling, DIA-MS); type: binding, Plasmodium falciparum; conditions: 100 µM W-991 vs DMSO; Fig S4E
Method: (§1) The experiment was carried out in three biological replicates. Saponin-liberated mature parasite stages (30-42 hpi) were resuspended in PBS and lysed by 3x flash freeze/thawing using liquid N2, followed by 10 x mechanical sheering with a 29 G needle-syringe, and soluble protein isolation through ultracentrifugation (100,000 g; 20 min, 4 °C). Protein lysate was exposed to the 100 µM of W-991 or the vehicle control (DMSO) for 3 min and subsequently incubated with varying concentration of the solvent mixture ‘AEF’ (50% Acetone, 50% Ethanol, 0.1% Formate) to a final concentration of 7-25% (v/v) with 2% intervals, for 20 min at 37 °C at 800 rpm on a Thermomixer (Eppendorf). Denatured protein was pelleted through centrifugation (4 °C, 18,000 g, 20 min), and the soluble phase was recovered and pulled together in equivolume ratios into two samples; Gradient 1 ‘G1’: 7-15% EAF and Gradient 2 ‘G2’: 17-25% EAF, respectively.
(§2) Sample preparation for proteomic analysis was carried out using modified SP4 glass beads protocol. In brief, protein was reduced (20 mM TCEP, 100 mM TEAB) for 20 min at 55 °C and alkylated with 55 mM 2-Chloroacetamide for 30 min, followed by precipitation on beads in 80% ACN with a 6 min centrifugation at 21,000 g and 3 x wash with 80% Ethanol. Dried beads were subjected to sequential digestion with LysC (3 h, 1:50 ratio w/w) and trypsin (overnight, 1:50 ratio w/w), and the resulting digest was acidified with 1% TFA and desalted on T3 C18 stage tips (Affinisep) according to manufacturer’s specifications.
(§3) Peptide samples were analysed on Orbitrap Eclipse Tribrid mass spectrometer that is interfaced with the Neo Vanquish liquid chromatography system. Samples were loaded onto a C18 fused silica column (inner diameter 75 µm, OD 360 µm × 15 cm length, 1.6 µm C18 beads) packed into an emitter tip (IonOpticks) using pressure-controlled loading with a maximum pressure of 1,500 bar, that is interfaced to the mass spectrometer using Easy nLC source and electro sprayed directly into the mass spectrometer. Sample separation was carried out on a linear gradient 5% to 17% of solvent-B at 400 nL /min flow rate (solvent-B: 80% (by vol) acetonitrile) for 23 min and 17% to 25% solvent-B for 10 min, 25% to 34% for 11 min and 34% to 90% solvent-B for 1 min which was maintained at 90% B for 3 min and washed the column at 2% solvent-B for another 3 min comprising a total of 63 min run with a 45 min gradient in a data independent acquisition (DIA) mode MS scan parameters included a full scan using an orbitrap and 120,000 resolution, standard AGC target and maximum injection time of 30 ms. A second DIA experiment used the orbitrap at […] resolution, a precursor scan range of 200-1200 m/z with a normalized AGC target of 3000% and 45 variable isolation windows. Peptides were isolated and fragmented using stepped […] (HCD) at 24%, 28% and 32% normalized collision energy. Peptide identification was carried out in DIA-NN 1.8.1 using standard settings and an in silico spectral library generated from Uniprot P. falciparum (UP000001450) and human (UP000005640) reference proteomes. The peptide length range was set to 7-30 amino acids. […] Subsequently, the differential abundance analysis (moderated t-test, based on limma package[81]) of P. falciparum proteins was conducted in the R environment (R version 4.2.0; R Studio Version 2023.12.1 + 402) using precursor normalised MaxLFQ data for proteins detected with ≥2 peptides. […]

[2] = test system: PF3D7_1463500 (START-domain protein); assay: Solvent-PISA (solvent proteome profiling, DIA-MS); type: binding, Plasmodium falciparum; conditions: 100 µM W-991 vs DMSO; Fig S4E
Method: as §1, §2, §3

[3] = test system: merozoites-associated armadillo repeats protein (MAAP, PF3D7_1035900); assay: Solvent-PISA (solvent proteome profiling, DIA-MS); type: binding, Plasmodium falciparum; conditions: 100 µM W-991 vs DMSO; 7-25% AEF
Method: as §1, §2, §3

[4] = test system: ring-infected erythrocyte surface antigen (RESA3, PF3D7_1149200); assay: Solvent-PISA (solvent proteome profiling, DIA-MS); type: binding, Plasmodium falciparum; conditions: 100 µM W-991 vs DMSO; 7-25% AEF
Method: as §1, §2, §3

[5] = test system: signal recognition particle subunit (SRP19, PF3D7_1216300); assay: Solvent-PISA (solvent proteome profiling, DIA-MS); type: binding, Plasmodium falciparum; conditions: 100 µM W-991 vs DMSO; 7-25% AEF
Method: as §1, §2, §3

Structure (SMILES)	effect on merozoite invasion and ring differentiation (P. falciparum merozoites)	abundance/stability of the protein on compound treatment [1]	abundance/stability of the protein on compound treatment [2]	soluble protein level in the presence of compound (stabilisation) [3]	soluble protein level in the presence of compound (stabilisation) [4]	soluble protein level in the presence of compound (stabilisation) [5]
Cc1cc(Cl)c(S(=O)(=O)N2CCCC2)cc1OCC(=O)NC1CCCCC1 [M-833]	invasion itself was slowed down but not reduced; also recorded: failed to differentiate into an amoeboid ring-stage parasite					
CC(C)(Nc1ccc(Cl)c(S(=O)(=O)N2CCOCC2)c1)C(=O)Nc1ccc(F)c(Cl)c1 [W-991]		not affected	not affected	drug-stabilised	drug-stabilised	drug-stabilised

Reference: publication PMC11189555, “Aryl amino acetamides prevent Plasmodium falciparum ring development via targeting the lipid-transfer protein PfSTART1” (Nature Communications, 2024)
